Assay results published in ChEMBL document CHEMBL3797099, “Re-exploration of the mGlu₁ PAM Ro 07-11401 scaffold: Discovery of analogs with improved CNS penetration despite steep SAR” (Bioorg Med Chem Lett, 2016).

Experiments:
[1] = molecular target: T1, Metabotropic glutamate receptor 1 (Homo sapiens, UniProt Q13255); test: Positive allosteric modulation of human mGlu1 receptor assessed as increase in glutamate-induced calcium mobilization relative to glutamate; type: functional
[2] = molecular target: T1, Metabotropic glutamate receptor 1; test: Positive allosteric modulation of human mGlu1 receptor assessed as increase in glutamate-induced calcium mobilization; type: functional
Target sequence in this assay (Q13255 whole entry): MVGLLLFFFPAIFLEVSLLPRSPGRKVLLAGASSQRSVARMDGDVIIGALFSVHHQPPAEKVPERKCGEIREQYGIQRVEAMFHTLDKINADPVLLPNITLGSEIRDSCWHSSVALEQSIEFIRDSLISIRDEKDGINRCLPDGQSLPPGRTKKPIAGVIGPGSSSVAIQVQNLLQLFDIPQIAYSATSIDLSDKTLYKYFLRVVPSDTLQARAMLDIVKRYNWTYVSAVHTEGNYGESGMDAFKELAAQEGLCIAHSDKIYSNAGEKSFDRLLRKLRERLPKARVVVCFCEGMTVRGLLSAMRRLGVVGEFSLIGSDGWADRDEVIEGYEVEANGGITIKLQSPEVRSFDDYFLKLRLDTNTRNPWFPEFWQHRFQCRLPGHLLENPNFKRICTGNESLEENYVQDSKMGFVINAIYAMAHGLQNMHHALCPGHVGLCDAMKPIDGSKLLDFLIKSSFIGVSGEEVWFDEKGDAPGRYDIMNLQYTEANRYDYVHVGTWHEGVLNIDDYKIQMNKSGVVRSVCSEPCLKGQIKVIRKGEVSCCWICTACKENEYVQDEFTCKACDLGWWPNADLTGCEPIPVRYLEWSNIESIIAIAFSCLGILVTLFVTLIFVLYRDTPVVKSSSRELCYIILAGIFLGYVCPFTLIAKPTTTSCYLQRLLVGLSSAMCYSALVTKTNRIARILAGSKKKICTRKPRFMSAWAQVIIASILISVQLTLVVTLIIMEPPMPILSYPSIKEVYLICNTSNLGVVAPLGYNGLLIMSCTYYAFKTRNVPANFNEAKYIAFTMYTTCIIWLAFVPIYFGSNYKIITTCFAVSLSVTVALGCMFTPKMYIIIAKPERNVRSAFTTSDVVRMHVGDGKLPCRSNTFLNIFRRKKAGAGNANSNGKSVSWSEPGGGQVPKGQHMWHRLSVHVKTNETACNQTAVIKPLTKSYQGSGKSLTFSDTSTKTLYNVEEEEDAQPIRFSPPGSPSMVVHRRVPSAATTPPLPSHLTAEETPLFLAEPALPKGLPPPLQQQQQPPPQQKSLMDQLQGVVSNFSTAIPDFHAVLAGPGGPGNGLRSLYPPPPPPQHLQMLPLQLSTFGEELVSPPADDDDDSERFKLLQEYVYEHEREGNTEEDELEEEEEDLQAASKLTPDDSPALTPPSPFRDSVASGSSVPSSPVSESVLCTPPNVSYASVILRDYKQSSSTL

[3] = molecular target: Metabotropic glutamate receptor 1 (Rattus norvegicus, UniProt P23385); test: Positive allosteric modulation of rat mGlu1 receptor assessed as increase in glutamate-induced calcium mobilization; type: functional
Sequence of Metabotropic glutamate receptor 1 (Rattus norvegicus, UniProt P23385) (P23385 whole entry): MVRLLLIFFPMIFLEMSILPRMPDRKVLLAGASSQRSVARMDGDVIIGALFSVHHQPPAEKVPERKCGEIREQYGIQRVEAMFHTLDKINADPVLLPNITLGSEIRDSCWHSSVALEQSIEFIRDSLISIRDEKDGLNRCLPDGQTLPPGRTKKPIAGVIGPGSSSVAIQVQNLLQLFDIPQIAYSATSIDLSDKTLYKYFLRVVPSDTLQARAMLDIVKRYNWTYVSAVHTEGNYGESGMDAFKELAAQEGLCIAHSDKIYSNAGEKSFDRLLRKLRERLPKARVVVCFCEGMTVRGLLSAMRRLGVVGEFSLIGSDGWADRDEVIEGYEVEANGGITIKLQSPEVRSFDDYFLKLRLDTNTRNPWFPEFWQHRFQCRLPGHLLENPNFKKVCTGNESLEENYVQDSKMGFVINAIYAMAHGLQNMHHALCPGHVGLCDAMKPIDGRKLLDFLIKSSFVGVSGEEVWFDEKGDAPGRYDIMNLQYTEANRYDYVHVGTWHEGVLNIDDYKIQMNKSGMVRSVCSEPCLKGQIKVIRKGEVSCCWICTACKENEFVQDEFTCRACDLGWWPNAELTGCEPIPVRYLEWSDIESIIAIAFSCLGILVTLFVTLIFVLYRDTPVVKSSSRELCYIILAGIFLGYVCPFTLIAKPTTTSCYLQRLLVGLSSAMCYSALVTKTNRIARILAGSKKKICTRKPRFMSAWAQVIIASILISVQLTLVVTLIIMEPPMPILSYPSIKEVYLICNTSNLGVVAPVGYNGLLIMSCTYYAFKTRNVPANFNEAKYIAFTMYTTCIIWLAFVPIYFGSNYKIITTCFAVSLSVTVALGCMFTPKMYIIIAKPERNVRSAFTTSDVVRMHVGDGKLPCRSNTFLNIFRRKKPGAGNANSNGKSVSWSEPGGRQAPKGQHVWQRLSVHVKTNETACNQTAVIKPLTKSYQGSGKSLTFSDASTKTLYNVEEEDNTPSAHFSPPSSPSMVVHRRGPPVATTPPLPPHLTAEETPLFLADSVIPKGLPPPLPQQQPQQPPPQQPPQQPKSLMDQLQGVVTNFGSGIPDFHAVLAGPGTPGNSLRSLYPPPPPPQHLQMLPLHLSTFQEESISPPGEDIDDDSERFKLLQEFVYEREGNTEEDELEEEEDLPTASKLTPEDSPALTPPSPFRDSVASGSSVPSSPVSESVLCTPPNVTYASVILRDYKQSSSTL

[4] = molecular target: Metabotropic glutamate receptor 1 (Rattus norvegicus) (UniProt P23385); test: Positive allosteric modulation of rat mGlu1 receptor assessed as increase in glutamate-induced calcium mobilization relative to glutamate; type: functional
Sequence of Metabotropic glutamate receptor 1 (Rattus norvegicus) (P23385 19-1199 limits assumed): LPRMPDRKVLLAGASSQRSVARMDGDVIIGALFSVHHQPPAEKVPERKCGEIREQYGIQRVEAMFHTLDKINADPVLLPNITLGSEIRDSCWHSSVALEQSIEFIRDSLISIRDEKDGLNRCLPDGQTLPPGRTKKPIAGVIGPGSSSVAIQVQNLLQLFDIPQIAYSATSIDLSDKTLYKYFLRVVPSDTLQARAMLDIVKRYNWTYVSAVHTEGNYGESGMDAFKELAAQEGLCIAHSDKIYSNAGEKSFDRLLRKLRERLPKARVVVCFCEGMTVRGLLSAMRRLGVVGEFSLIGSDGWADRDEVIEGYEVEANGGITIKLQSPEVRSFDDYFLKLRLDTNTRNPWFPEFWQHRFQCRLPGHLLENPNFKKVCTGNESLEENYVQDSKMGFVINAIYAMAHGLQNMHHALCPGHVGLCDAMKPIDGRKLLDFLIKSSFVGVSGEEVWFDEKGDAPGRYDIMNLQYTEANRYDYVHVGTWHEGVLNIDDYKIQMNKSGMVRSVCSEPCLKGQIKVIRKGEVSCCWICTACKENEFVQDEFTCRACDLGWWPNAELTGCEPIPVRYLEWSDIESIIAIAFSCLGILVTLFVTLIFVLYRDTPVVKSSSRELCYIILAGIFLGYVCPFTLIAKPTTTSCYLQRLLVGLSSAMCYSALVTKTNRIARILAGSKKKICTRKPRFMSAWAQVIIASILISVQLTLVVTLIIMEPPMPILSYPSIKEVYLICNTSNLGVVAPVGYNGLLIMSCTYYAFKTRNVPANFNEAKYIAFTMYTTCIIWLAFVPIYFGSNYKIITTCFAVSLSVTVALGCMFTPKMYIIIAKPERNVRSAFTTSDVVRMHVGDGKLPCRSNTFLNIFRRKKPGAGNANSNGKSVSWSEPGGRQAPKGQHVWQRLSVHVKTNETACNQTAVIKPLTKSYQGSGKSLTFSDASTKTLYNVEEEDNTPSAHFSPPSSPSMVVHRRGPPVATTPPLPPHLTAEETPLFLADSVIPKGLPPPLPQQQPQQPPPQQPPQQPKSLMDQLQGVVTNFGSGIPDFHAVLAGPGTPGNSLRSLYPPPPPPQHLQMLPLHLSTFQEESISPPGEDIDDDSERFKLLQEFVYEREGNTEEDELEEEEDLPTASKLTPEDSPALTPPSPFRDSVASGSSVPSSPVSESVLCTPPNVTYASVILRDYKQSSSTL

Brain [5] = test: Drug uptake in rat brain at 0.25 mg/kg, iv measured at the last time point; type: ADME, organism-based; conditions: in vivo
[6] = molecular target: T1, Metabotropic glutamate receptor 1; test: Positive allosteric modulation of human mGlu1 receptor assessed as glutamate efficacy at 10 uM (reference value: 95.2 +/- 3.5 %)
[7] = Ratio of drug level in brain to plasma in rat at 0.25 mg/kg, iv; type: ADME, organism-based
Cytochrome P450 2D6 = Cytochrome P450 2D6 (Homo sapiens, UniProt P10635); test: Inhibition of CYP2D6 (unknown origin); type: ADME
Sequence of Cytochrome P450 2D6 (P10635 whole entry): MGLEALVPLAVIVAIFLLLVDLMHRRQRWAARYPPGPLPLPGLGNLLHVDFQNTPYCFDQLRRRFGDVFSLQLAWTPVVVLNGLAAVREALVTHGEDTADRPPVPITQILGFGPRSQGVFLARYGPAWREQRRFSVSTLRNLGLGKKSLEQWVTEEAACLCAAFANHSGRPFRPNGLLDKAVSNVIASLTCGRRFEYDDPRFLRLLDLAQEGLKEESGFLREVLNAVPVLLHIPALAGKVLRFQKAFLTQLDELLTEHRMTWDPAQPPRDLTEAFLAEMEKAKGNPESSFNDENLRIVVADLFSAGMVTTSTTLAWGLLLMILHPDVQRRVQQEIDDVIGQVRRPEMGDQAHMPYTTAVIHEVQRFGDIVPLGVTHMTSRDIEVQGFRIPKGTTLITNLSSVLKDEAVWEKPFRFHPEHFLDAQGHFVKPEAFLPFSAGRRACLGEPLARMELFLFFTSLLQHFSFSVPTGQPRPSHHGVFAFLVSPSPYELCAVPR

[8] = molecular target: T1, Metabotropic glutamate receptor 1; test: Positive allosteric modulation of human mGlu1 receptor assessed as potentiation of glutamate-induced effect at 10 uM relative to control
[9] = molecular target: T1, Metabotropic glutamate receptor 1; test: Positive allosteric modulation of human mGlu1 receptor expressed in wild type T-Rex 293 cells assessed as increase in glutamate-induced calcium mobilization incubated for 2 mins before glutamate stimulation for 2.2 mins relative to glutamate; type: functional, cell-based
Plasma [10] = test: Plasma concentration in rat at 0.25 mg/kg, iv measured at the last time point; type: ADME, organism-based; conditions: in vivo
Cytochrome P450 3A4 = Cytochrome P450 3A4 (Homo sapiens, UniProt P08684); test: Inhibition of CYP3A4 (unknown origin); type: ADME
Sequence of Cytochrome P450 3A4 (P08684 whole entry): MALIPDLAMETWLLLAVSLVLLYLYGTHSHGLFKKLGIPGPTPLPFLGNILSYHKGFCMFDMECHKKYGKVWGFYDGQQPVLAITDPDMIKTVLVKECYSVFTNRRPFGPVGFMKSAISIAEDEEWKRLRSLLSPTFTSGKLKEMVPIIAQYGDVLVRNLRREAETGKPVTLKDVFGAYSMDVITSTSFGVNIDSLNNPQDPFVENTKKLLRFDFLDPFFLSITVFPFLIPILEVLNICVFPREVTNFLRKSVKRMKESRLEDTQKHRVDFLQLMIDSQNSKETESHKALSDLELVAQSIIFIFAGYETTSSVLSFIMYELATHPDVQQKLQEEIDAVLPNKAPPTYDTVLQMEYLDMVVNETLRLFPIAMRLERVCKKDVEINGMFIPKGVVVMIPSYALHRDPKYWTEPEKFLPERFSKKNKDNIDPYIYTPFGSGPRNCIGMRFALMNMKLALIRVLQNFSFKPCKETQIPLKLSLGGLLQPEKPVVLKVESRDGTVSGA

Brain [11] = test: Fraction unbound in rat brain homogenate; type: ADME, tissue-based
[12] = molecular target: T1, Metabotropic glutamate receptor 1; test: Positive allosteric modulation of human mGlu1 receptor expressed in wild type T-Rex 293 cells assessed as increase in glutamate-induced calcium mobilization incubated for 2 mins before glutamate stimulation for 2.2 mins; type: functional, cell-based
Target sequence in this assay (Q13255 whole entry): as the sequence (Q13255 whole entry) above

[13] = Fraction unbound in human plasma; type: ADME, cell-free
Cytochrome P450 2C9 = Cytochrome P450 2C9 (Homo sapiens, UniProt P11712); test: Inhibition of CYP2C9 (unknown origin); type: ADME
Plasma [14] = test: Fraction unbound in rat plasma; type: ADME, cell-free
Cytochrome P450 1A2 = molecular target: T2, Cytochrome P450 1A2 (Homo sapiens, UniProt P05177); test: Inhibition of CYP1A2 (unknown origin); type: ADME
T2 sequence (P05177 whole entry): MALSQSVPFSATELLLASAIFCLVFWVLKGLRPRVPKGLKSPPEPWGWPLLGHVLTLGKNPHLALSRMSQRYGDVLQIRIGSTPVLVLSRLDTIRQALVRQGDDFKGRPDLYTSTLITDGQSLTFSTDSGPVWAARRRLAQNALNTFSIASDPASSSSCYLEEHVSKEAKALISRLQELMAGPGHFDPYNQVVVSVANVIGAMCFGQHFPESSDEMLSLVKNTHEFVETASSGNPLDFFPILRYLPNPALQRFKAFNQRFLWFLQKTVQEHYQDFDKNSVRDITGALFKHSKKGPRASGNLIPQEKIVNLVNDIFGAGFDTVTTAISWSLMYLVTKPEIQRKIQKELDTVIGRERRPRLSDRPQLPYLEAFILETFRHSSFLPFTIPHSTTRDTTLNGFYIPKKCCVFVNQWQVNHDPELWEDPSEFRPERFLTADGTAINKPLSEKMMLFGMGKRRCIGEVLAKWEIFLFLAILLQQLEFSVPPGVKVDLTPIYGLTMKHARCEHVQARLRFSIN

[15] = Intrinsic clearance in human liver microsomes; type: ADME; conditions: read-out: CLH

Row | %max [1] [%] | EC50 ([2]; read-out: EC50) [nM] | EC50 ([3]; read-out: EC50) [nM] | %max [4] [%] | Drug uptake (Brain [5]) [ng/g] | Efficacy [6] [%] | Kp [7] | IC50 (Cytochrome P450 2D6) [nM] | fold change (FC) [8] | Cp (Plasma [10]) [ng/mL] | IC50 (Cytochrome P450 3A4) [nM] | Fu (Brain [11]) | SMILES | other results
1 | 101 | 2700 |  |  |  |  |  |  |  |  |  |  | Cc1nsc(NC(=O)C2c3ccccc3Oc3ccccc32)n1 | 
2 | 58 | 1700 |  |  |  |  |  |  |  |  |  |  | O=C(Nc1ccccn1)C1c2ccccc2Oc2ccccc21 | 
3 | 75 | 1400 | 3600 | 111 |  |  |  |  |  |  |  |  | O=C(Nc1nccs1)C1c2ccccc2Oc2ccccc21 | EC50 ([3]; read-out: pEC50 (converted)): 3720 nM
4 | 68 | > 10000 |  |  |  |  |  |  |  |  |  |  | Cc1nc(NC(=O)C2c3ccccc3Oc3ccccc32)sc1C | pEC50 [2]: < 5
5 |  |  | 276 | 109 | 81 | 109 | 0.29 | > 30000 | 6.9 | 276 | > 30000 | 0.001 | O=C(Nc1nc(C(F)(F)F)co1)C1c2ccccc2Oc2ccccc21 | %max [9]: 96%; EC50 [12]: 246 nM
6 | 54 | > 10000 |  |  |  |  |  |  |  |  |  |  | O=C(Nc1cncs1)C1c2ccccc2Oc2ccccc21 | pEC50 [2]: < 5
7 | 96 | 4800 |  |  |  |  |  |  |  |  |  |  | O=C(Nc1nc2ccccc2s1)C1c2ccccc2Oc2ccccc21 | 
8 | 89 | 900 | 2400 | 111 | 78.7 | 115 | 1.01 | 26500 | 4.6 | 77.8 | > 30000 | 0.001 | CC(C)c1csc(NC(=O)C2c3ccccc3Oc3ccccc32)n1 | Fu [13]: 0.001; IC50 (Cytochrome P450 2C9): 2100 nM; Fu (Plasma [14]): 0.002; IC50 (Cytochrome P450 1A2): 19000 nM; CLint scaled [15]: 15.5 mL/min/kg
9 | 110 | 710 | 1800 | 124 | 83.6 | 115 | 1.19 | 10300 | 5.4 | 80.2 | > 30000 | 0.017 | N#Cc1csc(NC(=O)C2c3ccccc3Oc3ccccc32)n1 | Fu [13]: 0.027; IC50 (Cytochrome P450 2C9): 2900 nM; Fu (Plasma [14]): 0.005; EC50 ([2]; read-out: pEC50 (converted)): 724 nM; IC50 (Cytochrome P450 1A2): 2900 nM; CLint scaled [15]: 9.85 mL/min/kg
